Laboratory results published in US20060247261A1 (priority 2002, published 2006).
Read-outs that look alike come from different tables or passages of the source.

Biological target: T1, human cannabinoid CB2 receptor (Homo sapiens, UniProt P34972)
T1 construct: expressed in transfected cells; host or cells: Saccharomyces cerevisiae strain MMY23 (expresses a chimeric Gpa1/human Galpha-i3 G-protein alpha subunit)
Experiment: Cannabinoid CB2 receptor agonist activity, yeast reporter assay
Format: cell-based
Conditions: for Emax: read-out: efficacy (Emax) at the cloned human cannabinoid CB2 receptor
Text: Yeast (Saccharomyces cerevisiae) cells expressing the human cannabinoid CB2 receptor were generated by integration of an expression cassette into the ura3 chromosomal locus of yeast strain MMY23. This cassette consisted of DNA sequence encoding the human CB2 receptor flanked by the yeast GPD promoter to the 5′ end of CB2 and a yeast transcriptional terminator sequence to the 3′ end of CB2. MMY23 expresses a yeast/mammalian chimeric G-protein alpha subunit in which the C-terminal 5 amino acids of Gpa1 are replaced with the C-terminal 5 amino acids of human Gαi3 (as described in Brown et al. (2000), Yeast 16:11-22).
Agonists were prepared as 10 mM stocks in DMSO. […] Agonist solutions in DMSO (1% final assay volume) were transferred into black, clear bottom, microtitre plates from NUNC (96- or 384-well). […] Fluorescence was plotted against compound concentration and iteratively curve fitted using a four parameter fit to generate a concentration effect value.

T1 sequence (P34972 whole entry): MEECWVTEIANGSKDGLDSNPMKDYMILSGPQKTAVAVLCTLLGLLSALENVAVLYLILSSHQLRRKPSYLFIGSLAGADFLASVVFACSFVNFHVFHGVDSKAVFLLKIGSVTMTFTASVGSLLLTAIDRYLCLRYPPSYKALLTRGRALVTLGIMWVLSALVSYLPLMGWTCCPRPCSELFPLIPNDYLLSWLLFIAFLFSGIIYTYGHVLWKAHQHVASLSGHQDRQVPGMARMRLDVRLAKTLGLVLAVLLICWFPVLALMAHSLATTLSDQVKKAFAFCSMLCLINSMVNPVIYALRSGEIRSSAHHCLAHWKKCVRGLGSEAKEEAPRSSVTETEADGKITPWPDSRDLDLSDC

`O=C(O)Cc1cccc(Nc2ncc(C(=O)NCc3ccc(F)cc3)c(C(F)(F)F)n2)c1` [Example 112, {3-[(4-Fluoro-benzylcarbamoyl)-trifluoromethyl-pyrimidin-2-ylamino]-phenyl}-acetic acid] showed an EC50 greater than 1000 nM and an Emax of less than 50%.

Molecule `N#Cc1ccc(CNC(=O)c2cnc(Nc3cc(Cl)cc(Cl)c3)nc2C(F)(F)F)cc1` [Example 26, 2-(3,5-Dichlorophenylamino)-4-trifluoromethylpyrimidine-5-carboxylic acid 4-cyanobenzylamide] has an EC50 of 20 to 1000 nM and an Emax greater than 50%.

With `O=C(NCc1ccc(F)cc1)c1cnc(Nc2cccc(Br)c2)nc1C(F)(F)F` [Example 24] the EC50 (yeast (Saccharomyces cerevisiae) cells expressing human CB2, read-out: EC50 at the cloned human cannabinoid CB2 receptor) was 20 to 1000 nM.

Work on `CN(Cc1ccccc1)C(=O)c1cnc(Nc2c(Cl)cccc2Cl)nc1C(F)(F)F` [Example 10, 2-(2,6-Dichlorophenylamino)-4-trifluoromethylpyrimidine-5-carboxylic acid N-benzyl-N-methylamide] yielded an EC50 of 20 to 1000 nM and an Emax greater than 50%.

`N#Cc1ccc(Nc2ncc(C(=O)NCc3ccc(F)cc3)c(C(F)(F)F)n2)cc1Cl` [Example 86, 2-(3-Chloro-4-cyano-phenylamino)-4-trifluoromethyl-pyrimidine-5-carboxylic acid 4-fluoro-benzylamide] showed an EC50 of 20 to 1000 nM and an Emax greater than 50%.

With `O=C(NCc1ccccc1)c1cnc(Nc2cccc(Br)c2)nc1C(F)(F)F` [Example 13, 2-(3-Bromophenylamino)-4-trifluoromethylpyrimidine-5-carboxylic acid benzyl-amide] the EC50 was 20 to 1000 nM and the Emax was greater than 50%.

Molecule `O=C(NCc1ccccn1)c1cnc(Nc2cccc(Cl)c2)nc1C(F)(F)F` [Example 59, 2-(3-Chloro-phenylamino)-4-trifluoromethyl-pyrimidine-5-carboxylic acid N-(pyridin-2-ylmethyl)-amide] has an EC50 greater than 1000 nM and an Emax of less than 50%.

With `COc1ccc(Nc2ncc(C(=O)NCc3ccccc3)c(C(F)(F)F)n2)cc1` [Example 46, 2-(4-Methoxy-phenylamino)-4-trifluoromethyl-pyrimidine-5-carboxylic acid N-benzylamide] the EC50 was greater than 1000 nM and the Emax was less than 50%.

For `O=C(NCc1ccc(F)cc1F)c1cnc(Nc2cccc(Cl)c2)nc1C(F)(F)F` [Example 103, 2-(3-Chloro-phenylamino)-4-trifluoromethyl-pyrimidine-5-carboxylic acid 2,4-difluoro-benzylamide], the EC50 was 20 to 1000 nM and the Emax was greater than 50%.

With `N#Cc1ccc(CNC(=O)c2cnc(Nc3cccc(Cl)c3)nc2C(F)(F)F)cc1` [Example 6, 2-(3-Chlorophenylamino)-4-trifluoromethylpyrimidine-5-carboxylic acid 4 cyanobenzyl-amide] the EC50 was 20 to 1000 nM and the Emax was greater than 50%.

Work on `COc1cccc(Nc2ncc(C(=O)NCc3ccncc3)c(C(F)(F)F)n2)c1` [Example 87] yielded an EC50 of 20 to 1000 nM and an Emax greater than 50%.

Molecule `CN(Cc1ccccc1)C(=O)c1cnc(Nc2cccc(Cl)c2Cl)nc1C(F)(F)F` [Example 7, 2-(2,3-Dichlorophenylamino)-4-trifluoromethylpyrimidine-5-carboxylic acid N-benzyl-N-methylamide] has an EC50 of 20 to 1000 nM and an Emax greater than 50%.

With `O=C(NCc1ccc(F)cc1)c1cnc(Nc2ccc(OC(F)(F)F)c(Cl)c2)nc1C(F)(F)F` [Example 111, 2-(3-Chloro-4-trifluoromethoxy-phenylamino)-4-trifluoromethyl-pyrimidine-5-carboxylic acid 4-fluoro-benzylamide] the EC50 was greater than 1000 nM and the Emax was less than 50%.

`O=C(NCc1ccncc1)c1cnc(Nc2c(Cl)cccc2Cl)nc1C(F)(F)F` [Example 69, 2-(2,6-Dichloro-phenylamino)-4-trifluorometbyl-pyrimidine-5-carboxylic acid N-(pyridin-4-ylmethyl)-amide] gave an EC50 greater than 1000 nM and an Emax of less than 50%.

Molecule `CN(Cc1ccccc1)C(=O)c1cnc(Nc2ccccc2Cl)nc1C(F)(F)F` [Example 96, 2-(2-Chloro-phenylamino)-4-trifluoromethyl-pyrimidine-5-carboxylic acid benzyl-methyl-amide] has an Emax greater than 50%.

`CN(Cc1ccccc1)C(=O)c1cnc(Nc2ccc(Cl)cc2)nc1C(F)(F)F` [Example 45, 2-(4-Chloro-phenylamino)-4-trifluoromethyl-pyrimidine-5-carboxylic acid N-benzyl-N-methyl-amide] was tested, and the EC50 was greater than 1000 nM and the Emax was less than 50%.

Work on `O=C(NCc1ccncc1)c1cnc(Nc2cc(Cl)cc(Cl)c2)nc1C(F)(F)F` [Example 22, 2-(3,5-Dichlorophenylamino)-4-trifluoromethylpyrimidine-5-carboxylic acid (pyridin-4-ylmethyl)amide] yielded an EC50 of 20 to 1000 nM and an Emax greater than 50%.

With `O=C(NCc1ccc(F)cc1)c1cnc(Nc2ccc(C(F)(F)F)c(F)c2)nc1C(F)(F)F` [Example 104, 2-(3-Fluoro-4-trifluoromethyl-phenylamino)-4-trifluoromethyl-pyrimidine-5-carboxylic acid 4-fluoro-benzylamide] the EC50 was 20 to 1000 nM and the Emax was greater than 50%.

Work on `O=C(NCc1ccc(F)cc1)c1cnc(Nc2ccc(Cl)cc2Cl)nc1C(F)(F)F` [Example 100, 2-(2,4-Dichloro-phenylamino)-4-trifluoromethyl-pyrimidine-5-carboxylic acid 4-fluoro-benzylamide] yielded an EC50 of 20 to 1000 nM and an Emax greater than 50%.

`O=C(NCc1cccnc1)c1cnc(Nc2cccc(Cl)c2)nc1C(F)(F)F` [Example 60, 2-(3-Chloro-phenylamino)-4-trifluoromethyl-pyrimidine-5-carboxylic acid N-(pyridin-3-ylmetbyl)-amide] gave an EC50 greater than 1000 nM and an Emax of less than 50%.

`N#Cc1cccc(Nc2ncc(C(=O)NCc3ccccc3)c(C(F)(F)F)n2)c1` [Example 97, 2-(3-Cyano-phenylamino)-4-trifluoromethyl-pyrimidine-5-carboxylic acid benzylamide] showed an EC50 of 20 to 1000 nM and an Emax greater than 50%.

Work on `O=C(NCc1ccccc1)c1cnc(Nc2ccc(Cl)c(Cl)c2)nc1C(F)(F)F` [Example 9, 2-(3,4-Dichlorophenylamino)-4-trifluoromethylpyrimidine-5-carboxylic acid benzyl-amide] yielded an EC50 of 20 to 1000 nM and an Emax greater than 50%.

For `O=C(NCc1ccnc(F)c1)c1cnc(Nc2cc(Cl)cc(Cl)c2)nc1C(F)(F)F` [Example 91, 2-(3,5-Dichloro-phenylamino)-4-trifluoromethyl-pyrimidine-5-carboxylic acid (2-fluoro-pyridin-4-ylmethyl)-amide], the EC50 was 20 to 1000 nM and the Emax was greater than 50%.

For `O=C(NCc1ccnc(F)c1)c1cnc(Nc2ccc(Cl)c(Cl)c2)nc1C(F)(F)F` [Example 92, 2-(3,4-Dichloro-phenylamino)-4-trifluoromethyl-pyrimidine-5-carboxylic acid (2-fluoro-pyridin-4-ylmethyl)-amide], the EC50 was 20 to 1000 nM and the Emax was greater than 50%.

`O=C(NCc1ccc(F)cc1)c1cnc(Nc2cc(Cl)ccc2F)nc1C(F)(F)F` [Example 84, 2-(5-Chloro-2-fluoro-phenylamino)-4-trifluoromethyl-pyrimidine-5-carboxylic acid 4-fluoro-benzylamide] showed an EC50 of 20 to 1000 nM and an Emax greater than 50%.

For `O=C(NCc1ccc(F)c(F)c1)c1cnc(Nc2cccc(Cl)c2)nc1C(F)(F)F` [Example 81, 2-(3-Chloro-phenylamino)-4-trifluoromethyl-pyrimidine-5-carboxylic acid 3,4-difluoro-benzylamide], the EC50 was 20 to 1000 nM and the Emax was greater than 50%.

With `CCN(Cc1ccccc1)C(=O)c1cnc(Nc2ccccc2Cl)nc1C(F)(F)F` [Example 53, 2-(2-Chloro-phenylamino)-4-trifluoromethyl-pyrimidine-5-carboxylic acid N-benzyl-N-ethyl-amide] the EC50 was greater than 1000 nM and the Emax was less than 50%.

`N#Cc1ccc(CNC(=O)c2cnc(Nc3cccc(Br)c3)nc2C(F)(F)F)cc1` [Example 64, 2-(3-Bromo-phenylamino)-4-trifluoromethyl-pyrimidine-5-carboxylic acid N-(4-cyano-benzyl)amide] gave an EC50 greater than 1000 nM and an Emax of less than 50%.

Molecule `O=C(NCc1ccccc1)c1cnc(Nc2ccccc2Cl)nc1C(F)(F)F` [Example 43, 2-(2-Chloro-phenylamino)-4-trifluoromethyl-pyrimidine-5-carboxylic acid N-benzylamide] has an EC50 greater than 1000 nM and an Emax of less than 50%.

For `O=C(NCc1ccc(F)cc1)c1cnc(Nc2cccc(Cl)c2F)nc1C(F)(F)F` [Example 83, 2-(3-Chloro-2-fluoro-phenylamino)-4-trifluoromethyl-pyrimidine-5-carboxylic acid 4-fluoro-benzylamide], the EC50 was 20 to 1000 nM and the Emax was greater than 50%.

With `O=C(NCc1ccncc1)c1cnc(Nc2cccc(Cl)c2)nc1C(F)(F)F` [Example 2, 2-(3-Chlorophenylamino)-4-trifluoromethylpyrimidine-5-carboxylic acid (pyrdin-4-ylmethyl)amide] the EC50 was 20 to 1000 nM and the Emax was greater than 50%.

For `O=C(NCc1ccncc1)c1cnc(Nc2cccc(F)c2)nc1C(F)(F)F` [Example 20, 2-(3-Fluorophenylamino)-4-trifluoromethylpyrimidine-5-carboxylic acid (pyridin-4-ylmethyl)amide], the EC50 was 20 to 1000 nM and the Emax was greater than 50%.

`O=C(NCc1ccc(F)cc1)c1cnc(Nc2cc(F)cc(F)c2)nc1C(F)(F)F` [Example 85, 2-(3,5-Difluoro-phenylamino)-4-trifluoromethyl-pyrimidine-5-carboxylic acid 4-fluoro-benzylamide] gave an EC50 of 20 to 1000 nM and an Emax greater than 50%.
